Results reported in paper PMC5612656, “In vitro and in vivo effects of 2,4 diaminoquinazoline inhibitors of the decapping scavenger enzyme DcpS: Context-specific modulation of SMN transcript levels” (PLoS ONE, 2017).
Several values for one entry are separate records, joined by “and”; a condition that tells them apart may be missing. Equal values may be shown once.

Experiments:
[1] = system: Smn transcripts in spinal cord, skeletal muscle, liver; assay: Smn transcripts in mouse tissues by ddPCR; format: in vivo
Excerpt: (§1) At P1, pups were counted.

[2] = system: Smn protein; assay: Smn protein in mouse tissues by Western blot; format: in vivo; conditions: 2B/- SMA mice
Excerpt: as §1

[3] = system: N2a cells; assay: RNA-Seq (polyA RNA) of N2a neuroblastoma cells; format: cell-based, mouse
Method: Cells were then pelleted and lysed in RLT and the RNA was purified according to the protocol for the Qiagen miRNeasy kit to separate and enrich small RNA and large (>200 nt) fractions separately. […] RNA quality was also validated using qPCR for DcpS responsive genes. RNA fractions were used for cDNA library preparation which was performed using Truseq mRNA v2 reagents or TailorMix miRNA reagents (RS-122-2101 Illumina, San Diego CA, USA and TM302 Seqmatic, Fremont CA, USA). Libraries were run on a Nextseq 500 (Illumina) using a paired-end run (2x75bp) generating ~60 million reads per library for the mRNA-seq and 1x75bp generating ~5 million reads per library for the miRNA-seq. Demultiplexing, alignment, and differential analysis for the mRNA-seq were performed as described below. For the miRNA alignment, briefly the sequences between 16 and 35 nucleotides with average phred score ≥ 30 were retained for analysis. The reads were first mapped to mouse miRNAs using Bowtie without allowing for mismatches. Instead of discarding the remaining reads, we explored the possibilities of RNA editing to include potential isomiRs. These reads were mapped to miRNAs that have at most 1 base mismatch, a substitution at the 5’ or 3’ ends, or have 1 or 2 extra bases at either ends. Although 1 base mismatch would include 1 base substitution/deletion/addition at the ends, we made sure that 1 base mismatch was inside the miRNA and that all categories were mutually exclusive. Reads mapping to protein coding exons and other small RNAs were removed prior to mapping to miRNAs. Reads that uniquely mapped to miRNAs were considered and were profiled as: 1) identical to miRNAs, 2) perfect match to miRNAs but are of shorter length (no more than 5 bases short), 3) mapping to miRNAs with 1 substitution, 1 or 2 extra bases at 3’ and 5’ ends and with those with at most 1 mismatch (occurring inside the sequence and not on ends), 4) mapping to the precursor miRNA. Thus, steps 2–4 constitute “IsomiRs”-alternative forms of the mature miRNAs. We merged the counts of reads identical to a miR and those mapping to isomeric forms as they are found to have identical/very similar functions. The unaligned reads were mapped to the mouse genome and an internally developed database of rRNAs from bacteria, fungi, plant and eukaryotes to detect presence of contaminants. For differential analysis of miRNAs, only those with counts of ≥5 in at least 1/3rd samples (treatment vs control) were considered for analysis. The counts were normalized and analyzed using EdgeR [19] packages in R-Bioconductor. The P-values were corrected by FDR for multiple testing and miRNAs with FDR ≤15% and |FC|>1.5 were considered to be differentially expressed.
The differentially regulated gene lists for both the spinal cord mRNA-seq and the N2a mRNA-seq results with a corrected P-value less than 0.05 were loaded into IPA and analyzed against the Ingenuity Knowledgebase, Ingenuity Expert Information, and with experimentally observed confidence.

[4] = system: SMN protein; assay: SMN protein by Western blot in SMA cells (fibroblasts, lymphoblasts, iPS-derived neural progenitor cells); format: cell-based, human; conditions: 24 hours to 7 days
Method: Lysates were incubated at 95°C for 5 minutes and cleared at 14,000 RPM for 15 minutes. Cleared lysates were quantified by BCA assay. A total of 5 μg of each lysate was mixed with NuPage LDS sample buffer with […] and loaded and separated on a NuPage 10% Bis-Tris gel. Proteins were transferred to 0.2 micron nitrocellulose using the BioRad Turbo Transfer system.

[5] = system: SMN transcripts in HEK-293T cells; assay: SMN transcripts by ddPCR in HEK-293T cells; conditions: HEK293T cells
[6] = system: SMN transcripts in SMA-derived lymphoblasts; assay: SMN transcripts by ddPCR in SMA-derived lymphoblasts; format: cell-based, human
[7] = system: 2B/- SMA mice; assay: Combined 55° negative geotaxis/climb test in 2B/- SMA mice; format: in vivo, mouse
[8] = 1 μM, 24 hours, 18,409 detectable
[9] = P16, Fisher's exact test P-value = 0.0708

Nc1nc(N)c2c(OCC3CCN(Cc4c(Cl)cccc4Cl)CC3)cccc2n1 [RG3039]
Smn transcripts (exons 5/6, exons 7/8, SmnΔ7) in tissues ([1]; 2B/- SMA mice, P4-P16 BID i.p.): significant increases in Smn transcripts in all tissues | SmnΔ7 transcripts in spinal cord ([1]; 2B/- mice): trended to increase | Smn protein levels in muscle [2]: no statistically significant change | Smn protein levels in spinal cord [2]: no statistically significant change | differential expression of Smn and DcpS ([3]; 1 μM, 24 hours): neither Smn nor DcpS itself were differentially expressed | down-regulated genes as share of differentially expressed genes ([3]; 1 μM, 24 hours): 41.7% | genes changed by less than one Log2 units (2-fold) in either direction ([3]; 1 μM, 24 hours): 1,489 genes | genes changed by less than one Log2 units (2-fold), share ([3]; 1 μM, 24 hours): 70.9% | genes changed by more than 2 log2 units (4-fold) in either direction ([3]; 1 μM, 24 hours): 80 genes | genes changed by more than 2 log2 units (4-fold), share ([3]; 1 μM, 24 hours): 3.8% | genes down-regulated by compound (P < 0.05) ([3]; 1 μM, 24 hours): 878 genes | pathways significantly affected (P < 0.05), Ingenuity Pathway Analysis ([3]; 1 μM, 24 hours): 53 pathways | proportion of detectable genes affected ([3]; 1 μM, 24 hours): > 11% and 11.4% | upregulated genes as share of differentially expressed genes ([3]; 1 μM, 24 hours): 58.3% | down-regulated genes as percentage of total detectable genes [3, 8]: 4.77% | upregulated genes as percentage of total detectable genes [3, 8]: 6.66% | genes differentially expressed compared to DMSO (P < 0.05) ([3]; 1 μM, 24 hours, 18,409 detectable genes): 2,104 genes | log2(fold-change), gene 1600020E01Rik ([3]; RG3039 vs DMSO, adjusted p-value 1.05E-117): 2.871 | log2(fold-change), gene Krcc1 ([3]; RG3039 vs DMSO, adjusted p-value 1.14E-85): -2.734 | log2(fold-change), gene Apba1 ([3]; RG3039 vs DMSO, adjusted p-value 1.54E-112): -5.025 | log2(fold-change), gene Rnf157 ([3]; RG3039 vs DMSO, adjusted p-value 3.09E-99): -3.057 | log2(fold-change), gene Stra6 ([3]; RG3039 vs DMSO, adjusted p-value 4.32E-66): -2.291 | Paqr8 log2 fold change ([3]; decreased, P = 0.00251): 0.657 | Dpm3 log2 fold change ([3]; increased, P = 0.000012): 0.884 | Pigw log2 fold change ([3]; increased, P = 1.89 x 10^−30): 1.54 | SMN protein [4]: in no experimental condition tested were we able to detect an increase in SMN protein | SMN2 transcript increase at later time points ([5]; 8 or 24hr): much reduced or absent | increase in SMN2 transcript ([5]; after 4h of treatment): ~ 20% | changes in SMN transcripts ([6]; active DAQ-DcpSi vs 7-methyl analogues): modest changes in SMN transcripts | SMNΔ7 transcripts ([6]; example experiment of Fig 5): no decrease in SMNΔ7 transcripts | simultaneous pass rate, 55° negative geotaxis and climb test ([7]; 2B/- SMA mice at P16, combined sexes): about 78% | improvement in ability to pass the combined assay over vehicle SMA mice [7, 9]: ~40% | statistical significance of improvement over vehicle SMA mice in combined test [7, 9]: showed improvement over vehicle SMA mice that did not reach statistical significance
